Data set [1] in a line: Alkaloid feeding experiment, alkaloid abundance in tissues by LC-MS/MS. The format is in vivo, Dendrobates tinctorius. The text has this: Lab-reared (non-toxic) Dendrobates tinctorius were housed in terraria with live plants, a water pool, and a shelter. Ten adult females were size-matched, randomly assigned to control or experimental groups (N = 5 per group), and then housed individually. To measure the specific effects of PTX 251D compared to a background toxicity, the control group was fed 0.01% DHQ (Sigma-Aldrich, St. Louis, USA) in a solution of 1% EtOH and the experimental group was fed a solution of 0.01% DHQ and 0.01% PTX 251D (PepTech, Burlington, MA, USA) in a solution of 1% EtOH in water. Each frog was fed 15 μL each day for five days by pipetting the solution directly into the mouth between 10am-12pm. On the afternoon of the fifth day, frogs were euthanized by cervical transection and the dorsal skin, liver, intestines, and oocytes were dissected into Trizol (Thermo Fisher Scientific, Waltham, USA).
To isolate alkaloids, 0.3 mL of 100% EtOH was added to 1mL of organic layer from the Trizol RNA extraction, inverted 10 times, and stored at room temperature for 2–3 minutes to precipitate genomic DNA, which was pelleted by centrifugation at 2000g for 5 minutes at 4°C. Then, 300 μL of supernatant was transferred to a new microfuge tube. Proteins were precipitated by adding 900 μL of acetone, mixing by inversion for 10–15 seconds, incubating at room temperature for 10 min, and centrifuging at max speed for 10 min at 4°C. Then, 1 mL of the supernatant containing alkaloids was moved into a glass vial and stored at -20°C until dried down completely under a gentle nitrogen gas flow.
Samples were resuspended in 200 μl of methanol:chloroform 1:1 and 1 μM Nicotine-d3 (used as an internal standard). A 10-point standard curve was prepared in the same solution with DHQ and PTX 251D. A QE+ mass spectrometer coupled to an Ultimate3000 LC (ThermoFisher) was used for analysis. […] The gradient was 0% B for 1 min, then increased to 100% B in 14 min, followed by 5 min at 100% B and 3.5 min at 0% B. Data were quantified using accurate mass, using the standard curve for DHQ and PTX 251D for absolute quantification. aPTX 267A was identified by accurate mass and MS/MS fragmentation similarity to PTX.
R version 3.6.3 was used for all statistical analyses, and all plotting and statistics code is provided in a S1 File. There were instances in the LC-MS/MS data where the molecules of interest (DHQ, PTX 251D, or aPTX 267A) were not detected, and these were converted to zeros prior to statistical analyses and visualization. […] PTX 251D and DHQ were analyzed separately. The abundance of aPTX 267A was approximated using the area-under-the-curve divided by the internal nicotine standard, and as there is no standard for aPTX 267A, exact pmol values could not be calculated. […]

Another data set deals with mice. The following applies: cited from earlier work.

Data on 2 compounds can be found in publication PMC8916643, “Molecular physiology of pumiliotoxin sequestration in a poison frog” (PLoS ONE, 2022).

`C1CCC2NCCCC2C1` (centres unmarked) [DHQ, reference compound]: in data set [1] (fed orally daily for five days, skin, liver, intestines, oocytes), the “DHQ abundance across tissue types” value is “highest levels occurring in the liver and skin”.
As for `CCCCC(C)C=C1CN2CCCC2C(C)(O)C1O` (centres unmarked) [aPTX 267A, allopumiliotoxin (aPTX 267A)], in the data set on mice (injected into mice), the “lethal dose (hyperactivity, convulsions, and death)” value is listed as 2 mg/kg. For the same compound, in the data set with mice (mice), the “lethal dose relative to that of PTX 251D” value is recorded as “five times lower”. The “aPTX 267A abundance across tissues” value in data set [1] (DHQ+PTX feeding group) is reported as “greater abundance in the skin than the oocytes”. Further, the “aPTX 267A in the skin after PTX 251D feeding” value in data set [1] (DHQ+PTX feeding group vs DHQ-fed group, all individuals, area-under-the-curve divided by internal nicotine standard) was “higher levels than the DHQ-fed group”.
